In patent publication US20100130482A1, “DIA[…] DERIVATIVES AS NICOTINIC ACETYLCHOLINE RECEPTOR LIGANDS” (priority 2004, published 2010):
Counter-ions that a name gives are not always drawn.

tested on: not given; assay: not given; conditions: not given

| Compound | melting point |
| --- | --- |
| O=C(c1ccc(-c2ccc(Nc3ncccc3[N+](=O)[O-])cc2)o1)N1CCN2CCC1CC2 (as salt: fumaric acid salt) | 223 °C |
| O=C(c1ccc(-c2ccc(NC(=S)Nc3ccccc3)cc2)o1)N1CCN2CCC1CC2 | 171.4 to 174.7 °C |
| Nc1cccc(C(=O)Nc2ccc(-c3ccc(C(=O)N4CCN5CCC4CC5)o3)cc2)c1 | 249 to 252 °C |
| O=C(Nc1ccc(-c2ccc(C(=O)N3CCN4CCC3CC4)o2)cc1)Nc1cccc(F)c1 | 230 °C |
| CCNC(=O)Nc1ccc(-c2ccc(C(=O)N3CCN4CCC3CC4)o2)cc1 (as salt: fumaric acid salt) [Compound C3, 1-{4-[5-(1,4-Diaza-bicyclo[3.2.2]nonane-4-carbonyl)-furan-2-yl]-phenyl}-3-ethyl-urea] | 167 to 171 °C |
| Nc1ccc(C(=O)Nc2ccc(-c3ccc(C(=O)N4CCN5CCC4CC5)o3)cc2)cc1 | 151 °C |
| O=C(Nc1ccc(-c2ccc(C(=O)N3CCN4CCC3CC4)o2)cc1)Nc1ccccc1Cl | 200 to 211 °C (dec.) |
| O=C(Nc1ccc(-c2ccc(C(=O)N3CCN4CCC3CC4)o2)cc1)Nc1ccccc1[N+](=O)[O-] (as salt: fumaric acid salt) | 198 to 202 °C |
| O=C(Nc1ccc(-c2ccc(C(=O)N3CCN4CCC3CC4)o2)cc1)Nc1ccccc1C(F)(F)F | 253 °C (dec.) |
| CCNC(=O)Nc1cccc(-c2ccc(C(=O)N3CCN4CCC3CC4)o2)c1 (as salt: fumaric acid salt) | 158 to 161 °C |
| CC(=O)Nc1ccccc1NC(=O)Nc1ccc(-c2ccc(C(=O)N3CCN4CCC3CC4)o2)cc1 (as salt: fumaric acid salt) [Compound B2, 1-{4-[5-(1,4-Diaza-bicyclo[3.2.2]nonane-4-carbonyl)-furan-2-yl]-phenyl}-3-(2-acetylaminophenyl)-urea] | 159 to 169 °C |
| O=C(Nc1cccc(-c2ccc(C(=O)N3CCN4CCC3CC4)o2)c1)c1ccccc1 (as salt: fumaric acid salt) | 201 to 204 °C |
| O=C(Nc1ccc(-c2ccc(C(=O)N3CCN4CCC3CC4)o2)cc1)c1ccc([N+](=O)[O-])cc1 (as salt: hydrochloric acid salt) | 195 to 210 °C |
| O=C(Nc1ccc(-c2ccc(C(=O)N3CCN4CCC3CC4)o2)cc1)c1ccccc1 | 254 °C |
| CCNC(=O)Nc1ccccc1NC(=O)Nc1ccc(-c2ccc(C(=O)N3CCN4CCC3CC4)o2)cc1 (as salt: fumaric acid salt) | 162.5 to 165.5 °C |
| Nc1ccccc1NC(=O)Nc1ccc(-c2ccc(C(=O)N3CCN4CCC3CC4)o2)cc1 [Compound A1, 1-{4-[5-(1,4-Diaza-bicyclo[3.2.2]nonane-4-carbonyl)-furan-2-yl]-phenyl}-3-(2-aminophenyl)-urea] | 174 °C |
| O=C(c1ccc(-c2ccc(-n3cccc3)cc2)o1)N1CCN2CCC1CC2 (as salt: fumaric acid salt) | 222 °C |
| O=C(Nc1ccc(-c2ccc(C(=O)N3CCN4CCC3CC4)o2)cc1)c1cccc([N+](=O)[O-])c1 (as salt: hydrochloric acid salt) | > 300 °C |
| O=C(Nc1ccc(-c2ccc(C(=O)N3CCN4CCC3CC4)o2)cc1)c1ccncc1 (as salt: fumaric acid salt) | 250 to 253.5 °C |
| O=C(Nc1ccc(-c2ccc(C(=O)N3CCN4CCC3CC4)o2)cc1)Nc1ccccc1F | 241 °C (dec.) |
| O=C(Nc1ccc(-c2ccc(C(=O)N3CCN4CCC3CC4)o2)cc1)c1ccccc1[N+](=O)[O-] (as salt: hydrochloric acid salt) | 283 °C |
| O=C(Nc1ccc(-c2ccc(C(=O)N3CCN4CCC3CC4)o2)cc1)Nc1cccc(C(F)(F)F)c1 | 171 °C |

biological target: T1, α7-subtype of nicotinic receptors (Rattus norvegicus, UniProt Q05941); assay: In vitro inhibition of 3H-α-bungarotoxine binding in rat brain; conditions: rat cerebral cortex homogenate; 3H-α-bungarotoxine 2 nM; 2 hours at 37° C.
T1 construct: Cerebral cortices from male Wistar rats (150-250 g) are homogenised; from tissue; host or cells: rat cerebral cortex membrane homogenate
T1 sequence (Q05941 23-502): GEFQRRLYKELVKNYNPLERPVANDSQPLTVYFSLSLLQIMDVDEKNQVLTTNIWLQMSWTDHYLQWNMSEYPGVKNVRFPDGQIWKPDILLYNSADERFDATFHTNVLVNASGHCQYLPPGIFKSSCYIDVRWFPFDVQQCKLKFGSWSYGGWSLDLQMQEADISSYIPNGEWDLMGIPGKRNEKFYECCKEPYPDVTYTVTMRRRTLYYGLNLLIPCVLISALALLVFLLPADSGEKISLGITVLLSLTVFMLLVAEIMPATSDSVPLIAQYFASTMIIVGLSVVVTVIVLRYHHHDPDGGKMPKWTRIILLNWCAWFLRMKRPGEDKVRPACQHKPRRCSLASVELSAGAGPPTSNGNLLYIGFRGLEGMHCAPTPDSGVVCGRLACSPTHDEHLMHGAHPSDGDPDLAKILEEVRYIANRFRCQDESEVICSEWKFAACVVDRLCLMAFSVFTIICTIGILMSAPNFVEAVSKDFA

| Compound | IC50 [nM] |
| --- | --- |
| Nc1ccccc1NC(=O)Nc1ccc(-c2ccc(C(=O)N3CCN4CCC3CC4)o2)cc1 [Compound A1, 1-{4-[5-(1,4-Diaza-bicyclo[3.2.2]nonane-4-carbonyl)-furan-2-yl]-phenyl}-3-(2-aminophenyl)-urea] | 1.2 |
| CC(=O)Nc1ccccc1NC(=O)Nc1ccc(-c2ccc(C(=O)N3CCN4CCC3CC4)o2)cc1 [Compound B2, 1-{4-[5-(1,4-Diaza-bicyclo[3.2.2]nonane-4-carbonyl)-furan-2-yl]-phenyl}-3-(2-acetylaminophenyl)-urea] | 1.6 |
| CCNC(=O)Nc1ccc(-c2ccc(C(=O)N3CCN4CCC3CC4)o2)cc1 [Compound C3, 1-{4-[5-(1,4-Diaza-bicyclo[3.2.2]nonane-4-carbonyl)-furan-2-yl]-phenyl}-3-ethyl-urea] | 0.56 |
